In patent US12479847B2 (DANA-FARBER CANCER INSTITUTE, INC., priority 2019, dated 2025) one finds remaining binding data, which are given here for three compounds.

Common to all, as to assay: KINOMEscan (ScanMAX) kinase profiling
Common to all, as to format: binding

The target in test [1] is T1, panel of 468 kinases (Homo sapiens, UniProt O14976).
T1 construct: purchased KINOMEscan (ScanMAX) service
T1 sequence (O14976 1-1311): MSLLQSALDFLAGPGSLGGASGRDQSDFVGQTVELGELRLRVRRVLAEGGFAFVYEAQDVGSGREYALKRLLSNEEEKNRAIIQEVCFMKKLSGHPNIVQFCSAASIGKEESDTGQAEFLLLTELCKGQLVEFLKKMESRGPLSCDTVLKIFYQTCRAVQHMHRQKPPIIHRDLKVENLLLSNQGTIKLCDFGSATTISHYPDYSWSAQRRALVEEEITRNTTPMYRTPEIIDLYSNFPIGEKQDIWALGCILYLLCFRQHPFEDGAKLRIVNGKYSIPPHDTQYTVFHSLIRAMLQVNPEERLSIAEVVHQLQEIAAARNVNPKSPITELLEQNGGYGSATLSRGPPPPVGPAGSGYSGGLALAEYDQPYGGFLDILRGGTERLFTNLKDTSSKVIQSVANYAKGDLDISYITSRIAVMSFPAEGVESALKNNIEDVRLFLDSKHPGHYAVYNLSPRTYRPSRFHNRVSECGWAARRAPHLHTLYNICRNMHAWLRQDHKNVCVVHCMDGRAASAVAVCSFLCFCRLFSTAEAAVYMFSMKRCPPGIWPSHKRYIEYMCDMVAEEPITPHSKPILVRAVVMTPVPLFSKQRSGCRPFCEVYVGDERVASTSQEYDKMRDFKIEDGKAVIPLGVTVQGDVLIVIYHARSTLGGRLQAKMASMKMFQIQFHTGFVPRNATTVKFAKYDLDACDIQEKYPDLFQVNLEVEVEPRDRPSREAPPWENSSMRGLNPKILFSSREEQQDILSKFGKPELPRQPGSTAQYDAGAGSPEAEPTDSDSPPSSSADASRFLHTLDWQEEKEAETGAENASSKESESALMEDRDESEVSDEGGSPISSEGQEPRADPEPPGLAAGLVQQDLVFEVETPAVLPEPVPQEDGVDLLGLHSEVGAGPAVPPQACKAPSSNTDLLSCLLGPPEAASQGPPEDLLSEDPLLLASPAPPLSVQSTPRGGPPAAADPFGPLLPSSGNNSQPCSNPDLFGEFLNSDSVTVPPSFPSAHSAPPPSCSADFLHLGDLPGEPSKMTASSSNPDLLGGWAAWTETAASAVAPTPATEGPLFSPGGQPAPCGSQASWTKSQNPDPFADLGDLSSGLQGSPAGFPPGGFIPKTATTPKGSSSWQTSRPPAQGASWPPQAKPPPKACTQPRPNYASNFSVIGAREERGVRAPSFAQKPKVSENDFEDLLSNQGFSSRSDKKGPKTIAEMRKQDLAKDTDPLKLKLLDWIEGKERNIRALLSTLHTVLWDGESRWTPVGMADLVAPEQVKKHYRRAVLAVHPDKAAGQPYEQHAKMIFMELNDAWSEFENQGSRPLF
The conditions noted are these: GAK; 1 μM; read-out: % control.

The target in test [2] is T2, panel of 468 kinases (Homo sapiens, UniProt P42336, E545K).
T2 construct: purchased KINOMEscan (ScanMAX) service
T2 sequence (P42336 whole entry E545K): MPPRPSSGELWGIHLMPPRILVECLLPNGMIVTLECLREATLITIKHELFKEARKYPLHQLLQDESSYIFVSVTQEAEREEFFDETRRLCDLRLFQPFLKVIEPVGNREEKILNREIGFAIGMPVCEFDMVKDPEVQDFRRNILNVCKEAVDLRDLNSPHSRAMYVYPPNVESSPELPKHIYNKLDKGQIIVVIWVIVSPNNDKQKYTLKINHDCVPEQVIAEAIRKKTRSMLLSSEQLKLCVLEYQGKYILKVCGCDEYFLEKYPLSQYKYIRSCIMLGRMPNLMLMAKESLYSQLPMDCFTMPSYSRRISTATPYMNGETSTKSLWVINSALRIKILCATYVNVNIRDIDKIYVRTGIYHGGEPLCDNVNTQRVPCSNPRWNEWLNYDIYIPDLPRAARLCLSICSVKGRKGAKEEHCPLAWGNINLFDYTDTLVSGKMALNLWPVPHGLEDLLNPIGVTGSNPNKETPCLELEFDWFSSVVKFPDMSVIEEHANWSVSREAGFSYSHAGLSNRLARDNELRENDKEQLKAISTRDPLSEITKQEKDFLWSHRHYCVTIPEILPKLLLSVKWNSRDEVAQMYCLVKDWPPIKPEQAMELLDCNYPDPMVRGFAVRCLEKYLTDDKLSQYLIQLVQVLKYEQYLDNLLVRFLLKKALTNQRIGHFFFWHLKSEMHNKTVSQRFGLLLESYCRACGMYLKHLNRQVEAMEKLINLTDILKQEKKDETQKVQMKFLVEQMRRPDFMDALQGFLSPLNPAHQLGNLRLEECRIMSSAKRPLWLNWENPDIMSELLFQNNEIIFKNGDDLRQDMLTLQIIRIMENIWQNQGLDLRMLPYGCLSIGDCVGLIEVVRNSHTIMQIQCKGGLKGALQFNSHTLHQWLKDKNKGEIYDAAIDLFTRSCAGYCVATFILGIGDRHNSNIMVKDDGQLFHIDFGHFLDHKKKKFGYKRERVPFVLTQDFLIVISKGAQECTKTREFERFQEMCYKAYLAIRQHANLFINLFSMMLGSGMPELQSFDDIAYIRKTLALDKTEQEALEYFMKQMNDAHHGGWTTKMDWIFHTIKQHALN
The conditions noted are these: PIK3CA(E545K); 1 μM; read-out: % control.

Test [3] addresses T3, panel of 468 kinases (Homo sapiens, UniProt Q9HBY8).
T3 construct: purchased KINOMEscan (ScanMAX) service
T3 sequence (Q9HBY8 1-367): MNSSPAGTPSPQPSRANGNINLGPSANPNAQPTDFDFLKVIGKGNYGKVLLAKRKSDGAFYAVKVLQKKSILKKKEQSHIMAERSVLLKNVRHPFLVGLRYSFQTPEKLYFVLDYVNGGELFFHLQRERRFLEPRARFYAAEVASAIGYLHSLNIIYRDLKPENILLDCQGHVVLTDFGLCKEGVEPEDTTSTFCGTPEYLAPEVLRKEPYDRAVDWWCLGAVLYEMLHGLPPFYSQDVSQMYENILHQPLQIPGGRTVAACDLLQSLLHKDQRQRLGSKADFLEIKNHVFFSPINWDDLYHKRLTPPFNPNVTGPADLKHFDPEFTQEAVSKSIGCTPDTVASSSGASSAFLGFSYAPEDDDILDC
The conditions noted are these: SGK2; 1 μM; read-out: % control.

Turning to `CNc1nc(Nc2ccc(S(=O)(=O)N3CCC(N4CCOCC4)CC3)cc2OC)nc2[nH]cc(Cl)c12` [Compound 12, 5-chloro-N2-(2-methoxy-4-((4-morpholinopiperidin-1-yl)sulfonyl)phenyl)-N4-methyl-7H-pyrrolo[2,3-d]pyrimidine-2,4-diamine], the remaining binding at 1 µM at panel of 468 kinases [1] was found to be 3.8%; at panel of 468 kinases [2] it was 89%; at panel of 468 kinases [3] it was 95%.

With `CNc1nc(Nc2ccc(C(=O)N3CCC(N4CCOCC4)CC3)c3c2OCO3)nc2[nH]cc(Cl)c12` [Compound 75, (7-((5-chloro-4-(methylamino)-7H-pyrrolo[2,3-d]pyrimidin-2-yl)amino)benzo[d][1,3]dioxol-4-yl)(4-morpholinopiperidin-1-yl)methanone], the remaining binding at 1 µM at panel of 468 kinases [1] stood at 0.55%; on panel of 468 kinases [2], 100%; at panel of 468 kinases [3], 37%.

In the case of `CNc1nc(Nc2ccc(P3(=O)CCN(C4CCOCC4)CC3)cc2OC)nc2[nH]cc(Cl)c12` [Compound 77, 4-(4-((5-chloro-4-(methylamino)-7H-pyrrolo[2,3-d]pyrimidin-2-yl)amino)-3-methoxyphenyl)-1-(tetrahydro-2H-pyran-4-yl)-1,4-azaphosphinane 4-oxide], the results for the remaining binding at 1 µM at panel of 468 kinases [1], at panel of 468 kinases [2] and at panel of 468 kinases [3] were 0.9%, 94% and 87%, respectively.
